Test results taken from US12685777B2, “Compositions, systems, and methods for modulating a target gene” (The Board of Trustees of the Leland Stanford Junior …, priority 2022, dated 2026).

Target: T1, bromodomain 1 of BRD4 and BTB domain of BCL6 (Homo sapiens, UniProt O60885+P41182, C67R/C84N/C8Q)
T1 construct: contains amino acids 5-129 with three mutations, C8Q, C67R, C84N
Experiment: TR-FRET assay of ternary complex formation
Type: binding
Conditions: 1 hr at room temperature, 520 nm/490 nm ratio
Experimental: Reaction was incubated for 1 hr at room temperature, and subsequently the fluorescence at 520 nm and 490 nm was measured. The 520 nm/490 nm ratio is plotted respective to DMSO control. The two lower curves are performed by addition of Neg1 and Neg2 instead of JWZ-7-7. […] The structure of JWZ-7-7 is provided in FIG. 2 and the structures of Neg1 and Neg2 are provided below:
Each reaction contained 100 nM BRD4^BD1, 100 nM BCL6BTB-Avi-Biot, 20 nM Streptavidin-FITC (Thermo #SA1001), and 1:400 anti-6×His terbium antibody (PerkinElmer #61H12TLF) in 10 μL of buffer containing 20 mM HEPES, 150 mM NaCl, 0.1% BSA, 0.1% NP-40, and 1 mM TCEP in a 384-well plate. Protein was incubated with drug digitally dispensed (Tecan D300e) for 1 hour in the dark at room temperature before excitation at 337 nm and measurement of emission at 520 nm (FITC) and 490 nm (terbium) with a PHERAstar FS plate reader (BMG Labtech). The ratio of signal at 520 nm to 490 nm was calculated and normalized to DMSO-treated conditions, and plotted.

Compound | Ternary complex formation (TR-FRET)
CNC(=O)COc1cc2cc(Nc3nc(N4CCC(C(=O)NCCCCCCNC(=O)C[C@@H]5N=C(c6ccc(Cl)cc6)c6c(sc(C)c6C)-n6c(C)nnc65)CC4)ncc3Cl)cc(OC)c2n(C)c1=O [JWZ-7-6, (S)-1-(5-chloro-4-((8-methoxy-1-methyl-3-(2-(methylamino)-2-oxoethoxy)-2-oxo-1,2-dihydroquinolin-6-yl)amino)pyrimidin-2-yl)-N-(6-(2-(4-(4-chlorophenyl)-2,3,9-trimethyl-6H-thieno[3,2-f][1,2,4]triazolo[4,3-a][1,4]diazepin-6-yl)acetamido)hexyl)piperidine-4-carboxamide] | showed ternary complex formation
CNC(=O)COc1cc2cc(Nc3nc(N4CCC(C(=O)NCCN5CCN(CCNC(=O)C[C@@H]6N=C(c7ccc(Cl)cc7)c7c(sc(C)c7C)-n7c(C)nnc76)CC5)CC4)ncc3Cl)cc(OC)c2n(C)c1=O [JWZ-7-13, (S)-1-(5-chloro-4-((8-methoxy-1-methyl-3-(2-(methylamino)-2-oxoethoxy)-2-oxo-1,2-dihydroquinolin-6-yl)amino)pyrimidin-2-yl)-N-(2-(4-(2-(2-(4-(4-chlorophenyl)-2,3,9-trimethyl-6H-thieno[3,2-f][1,2,4]triazolo[4,3-a][1,4]diazepin-6-yl)acetamido)ethyl)piperazin-1-yl)ethyl)piperidine-4-carboxamide] | showed ternary complex formation
CNC(=O)COc1cc2cc(Nc3nc(N4CCC(C(=O)NCCCN5CCN(CCCNC(=O)C[C@@H]6N=C(c7ccc(Cl)cc7)c7c(sc(C)c7C)-n7c(C)nnc76)CC5)CC4)ncc3Cl)cc(OC)c2n(C)c1=O [JWZ-7-14, (S)-1-(5-chloro-4-((8-methoxy-1-methyl-3-(2-(methylamino)-2-oxoethoxy)-2-oxo-1,2-dihydroquinolin-6-yl)amino)pyrimidin-2-yl)-N-(3-(4-(3-(2-(4-(4-chlorophenyl)-2,3,9-trimethyl-6H-thieno[3,2-f][1,2,4]triazolo[4,3-a][1,4]diazepin-6-yl)acetamido)propyl)piperazin-1-yl)propyl)piperidine-4-carboxamide] | showed ternary complex formation
CNC(=O)COc1cc2cc(Nc3nc(N4CCC(C(=O)NCCCCCCCCCNC(=O)C[C@@H]5N=C(c6ccc(Cl)cc6)c6c(sc(C)c6C)-n6c(C)nnc65)CC4)ncc3Cl)cc(OC)c2n(C)c1=O [JWZ-7-15, (S)-1-(5-chloro-4-((8-methoxy-1-methyl-3-(2-(methylamino)-2-oxoethoxy)-2-oxo-1,2-dihydroquinolin-6-yl)amino)pyrimidin-2-yl)-N-(9-(2-(4-(4-chlorophenyl)-2,3,9-trimethyl-6H-thieno[3,2-f][1,2,4]triazolo[4,3-a][1,4]diazepin-6-yl)acetamido)nonyl)piperidine-4-carboxamide] | showed ternary complex formation
CNC(=O)COc1cc2cc(Nc3nc(N4CCC(C(=O)NCCCCCCCCCCNC(=O)C[C@@H]5N=C(c6ccc(Cl)cc6)c6c(sc(C)c6C)-n6c(C)nnc65)CC4)ncc3Cl)cc(OC)c2n(C)c1=O [JWZ-7-20, (S)-1-(5-chloro-4-((8-methoxy-1-methyl-3-(2-(methylamino)-2-oxoethoxy)-2-oxo-1,2-dihydroquinolin-6-yl)amino)pyrimidin-2-yl)-N-(10-(2-(4-(4-chlorophenyl)-2,3,9-trimethyl-6H-thieno[3,2-f][1,2,4]triazolo[4,3-a][1,4]diazepin-6-yl)acetamido)decyl)piperidine-4-carboxamide] | showed ternary complex formation
CNC(=O)COc1cc2cc(Nc3nc(N4CCN(CCCCCCCCCCCNC(=O)C[C@@H]5N=C(c6ccc(Cl)cc6)c6c(sc(C)c6C)-n6c(C)nnc65)CC4)ncc3Cl)cc(OC)c2n(C)c1=O [JWZ-7-22, (S)-2-((6-((5-chloro-2-(4-(11-(2-(4-(4-chlorophenyl)-2,3,9-trimethyl-6H-thieno[3,2-f][1,2,4]triazolo[4,3-a][1,4]diazepin-6-yl)acetamido)undecyl)piperazin-1-yl)pyrimidin-4-yl)amino)-8-methoxy-1-methyl-2-oxo-1,2-dihydroquinolin-3-yl)oxy)-N-methylacetamide] | showed ternary complex formation
CNC(=O)COc1cc2cc(Nc3nc(N4CCN(CCCCCCCCNC(=O)C[C@@H]5N=C(c6ccc(Cl)cc6)c6c(sc(C)c6C)-n6c(C)nnc65)CC4)ncc3Cl)cc(OC)c2n(C)c1=O [JWZ-7-23, (S)-2-((6-((5-chloro-2-(4-(8-(2-(4-(4-chlorophenyl)-2,3,9-trimethyl-6H-thieno[3,2-f][1,2,4]triazolo[4,3-a][1,4]diazepin-6-yl)acetamido)octyl)piperazin-1-yl)pyrimidin-4-yl)amino)-8-methoxy-1-methyl-2-oxo-1,2-dihydroquinolin-3-yl)oxy)-N-methylacetamide] | showed ternary complex formation
CNC(=O)COc1cc2cc(Nc3nc(N4CCC(C(=O)NCCCOCCCNC(=O)C[C@@H]5N=C(c6ccc(Cl)cc6)c6c(sc(C)c6C)-n6c(C)nnc65)CC4)ncc3Cl)cc(OC)c2n(C)c1=O [JWZ-7-97, (S)-1-(5-chloro-4-((8-methoxy-1-methyl-3-(2-(methylamino)-2-oxoethoxy)-2-oxo-1,2-dihydroquinolin-6-yl)amino)pyrimidin-2-yl)-N-(3-(3-(2-(4-(4-chlorophenyl)-2,3,9-trimethyl-6H-thieno[3,2-f][1,2,4]triazolo[4,3-a][1,4]diazepin-6-yl)acetamido)propoxy)propyl)piperidine-4-carboxamide] | showed ternary complex formation
CNC(=O)COc1cc2cc(Nc3nc(N4CCC(C(=O)N5CCC6(CC5)CN(CCNC(=O)C[C@@H]5N=C(c7ccc(Cl)cc7)c7c(sc(C)c7C)-n7c(C)nnc75)C6)CC4)ncc3Cl)cc(OC)c2n(C)c1=O [JWZ-7-98, (S)-2-((6-((5-chloro-2-(4-(2-(2-(2-(4-(4-chlorophenyl)-2,3,9-trimethyl-6H-thieno[3,2-f][1,2,4]triazolo[4,3-a][1,4]diazepin-6-yl)acetamido)ethyl)-2,7-diazaspiro[3.5]nonane-7-carbonyl)piperidin-1-yl)pyrimidin-4-yl)amino)-8-methoxy-1-methyl-2-oxo-1,2-dihydroquinolin-3-yl)oxy)-N-methylacetamide] | showed ternary complex formation
CNC(=O)COc1cc2cc(Nc3nc(N4CCC(C(=O)NCCCN(C)CCCNC(=O)C[C@@H]5N=C(c6ccc(Cl)cc6)c6c(sc(C)c6C)-n6c(C)nnc65)CC4)ncc3Cl)cc(OC)c2n(C)c1=O [JWZ-7-100, (S)-1-(5-chloro-4-((8-methoxy-1-methyl-3-(2-(methylamino)-2-oxoethoxy)-2-oxo-1,2-dihydroquinolin-6-yl)amino)pyrimidin-2-yl)-N-(3-((3-(2-(4-(4-chlorophenyl)-2,3,9-trimethyl-6H-thieno[3,2-f][1,2,4]triazolo[4,3-a][1,4]diazepin-6-yl)acetamido)propyl)(methyl)amino)propyl)piperidine-4-carboxamide] | showed ternary complex formation

System: DMS-79
Experiment: Dose response on viability of small cell lung cancer line, resazurin assay
Type: cell-based
Conditions: Homo sapiens; DMS-79, 72 h treatment
Experimental: (§1) IC50 of JWZ-7-7, BI-3812, JQ1, and combinations were calculated based on a dose response curve on three small cell lung cancer lines (FIG. 5). The dose response curve on viability was performed in technical replicates and biological triplicate after treating cells for 72 hours across a broad range of concentrations via serial dilutions. Viable cells were measured after treatment via a resazurin assay. The signal for viable assays was normalized to the DMSO treated negative control. A four-parameter non-linear fit was performed to fit a curve to calculate the IC50 for each of the cell lines. The table below describes the calculated IC50 across JWZ-7-7, JQ1, BI-3812 and combination of JQ1 and BI-3812 after 72 h treatment in technical replicates and biological triplicates.

Compound | IC50
CNC(=O)COc1cc2cc(Nc3nc(N4CCC(C(=O)N(C)C)CC4)ncc3Cl)cc(OC)c2n(C)c1=O [BI-3812] | 6.1 µM

System: NCI-H2196
Experiment: as above
Type: cell-based
Conditions: Homo sapiens; NCI-H2196, 72 h treatment
Experimental: as §1

Compound | IC50
CNC(=O)COc1cc2cc(Nc3nc(N4CCC(C(=O)N(C)C)CC4)ncc3Cl)cc(OC)c2n(C)c1=O [BI-3812] | 3.5 µM

System: NCI-H1105
Experiment: as above
Type: cell-based
Conditions: NCI-H1105, 72 h treatment; read-out: IC50
Experimental: as §1

Compound | IC50
CNC(=O)COc1cc2cc(Nc3nc(N4CCC(C(=O)N(C)C)CC4)ncc3Cl)cc(OC)c2n(C)c1=O [BI-3812] | 4.3 µM
